The subject of one series is MDA-MB-231 cells. Put plainly: Soft agar anchorage-independent growth assay. The settings on record: MDA-MB-231, soft agar, 3% WF, 10 or 20μM, three weeks. It is filed as cell-based, human. An excerpt:
Vinculin was used as loading control. (B) Same as in (A) but the analysis was focused on STAT3 and Src signaling pathways. Actin was used as loading control. […] Two weeks later plates were stained with crystal violet and colonies photographed (C) and counted (D). […] After three weeks, colonies were photographed (E) and counted (F). Values reported in (D) and (F) represent the mean (± S.D.) of two independent experiments performed in duplicate. * p<0.05; ** p<0.01; *** p<0.001.
Both number and size of the colonies were affected, signifying that, in this context, activity of p70S6K was necessary for both survival and proliferation of breast cancer cells (Fig. 2E and F).
The experiments were performed in six-well tissue culture plates, in triplicate. Fresh medium was added to the wells twice a week as a feeder layer. After three weeks, the number of colonies was counted at 4X magnification.

For series [1], the system named is breast cancer local relapse. Further details: method as in PMID 23899505, PMID 24661902, PMID 18316551. The settings on record: mouse model of breast cancer ref 9,10,24; cited from earlier work.
A further series relates to advanced solid tumors. Further details: method as in PMID 24456794, PMID 24440085. The conditions noted are these: cited from earlier work.

With `CCc1cncnc1N1CCN(Cc2nc3ccc(C(F)(F)F)cc3[nH]2)CC1` [PF-4708671], the “ability to survive and grow in anchorage independence” value with MDA-MB-231 cells is “significantly decreased”. Moreover, the “breast cancer local relapse” value in series [1] is “strongly impaired”.
As for `Cc1ccc(S(=O)(=O)O)cc1.Cn1cc(-c2ccc(F)c(C(F)(F)F)c2)nc1C1CCN(c2ncnc3[nH]ncc23)CC1` [LY2584702 tosylate], the clinical benefit result with advanced solid tumors (alone or in combination with erlotinib or everolimus, phase I trials ref 11,12) is recorded as “very limited clinical benefit”. For the same compound, the tolerability entry in the series on advanced solid tumors (particularly when administered with erlotinib ref 11,12) is recorded as “low tolerability”.

Source of the values: PMC4931847, “Preclinical validation of a novel compound targeting p70S6 kinase in breast cancer” (Aging (Albany NY), 2016).
